Where “and” joins values, the source holds several entries; their conditions need not be identical. Identical values can stand only once.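 Tested at 5 concentrations; 48 h exposure; 96-well plates; endpoints linearly interpolated, else capped at highest concentration. GI50: concentration for 50% inhibition of growth. Definition used: TGI = concentration required for complete inhibition of growth.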
Columns and labels:
Test in all cases: NCI anticancer screen, dose series, 48 h
A549 NSCLC = test system: A549 NSCLC
K-562 leukemia = test system: K-562 leukemia
HS 578T breast = test system: HS 578T breast
OVCAR-4 ovarian = test system: OVCAR-4 ovarian
SF-295 CNS = test system: SF-295 CNS
OVCAR-8 ovarian = test system: OVCAR-8 ovarian
NCI-H23 lung = test system: NCI-H23 lung
HCT-15 colon = test system: HCT-15 colon
DU-145 prostate = test system: DU-145 prostate
A498 renal = test system: A498 renal

SMILES | TGI (A549 NSCLC) | TGI (K-562 leukemia) | TGI (HS 578T breast) | TGI (OVCAR-4 ovarian) | TGI (SF-295 CNS) | TGI (OVCAR-8 ovarian) | TGI (NCI-H23 lung) | TGI (HCT-15 colon) | TGI (DU-145 prostate) | GI50 (A549 NSCLC) | GI50 (K-562 leukemia) | GI50 (OVCAR-4 ovarian) | GI50 (A498 renal) | TGI (A498 renal) | GI50 (SF-295 CNS) | GI50 (OVCAR-8 ovarian) | GI50 (NCI-H23 lung) | GI50 (HCT-15 colon) | GI50 (HS 578T breast) | GI50 (DU-145 prostate)
CN1C(=O)c2cccc3cc([N+](=O)[O-])cc(c23)C1=O | > 10 µM | > 10 µM | > 10 µM | > 10 µM | > 10 µM | > 10 µM | > 10 µM | > 10 µM | > 10 µM |  |  |  |  |  |  |  |  |  |  | 
CC(=O)[O-].CCN(CC)c1ccc(C=NCCN=Cc2ccc(N(CC)CC)cc2[O-])c([O-])c1.[Mn+3] | > 100 µM | 61.3 µM |  | > 100 µM | 71.8 µM | 57 µM | 37.6 µM | > 100 µM |  | 34.5 µM | 22.9 µM | 37.3 µM | 22.9 µM | 53.1 µM | 27.7 µM | 24.5 µM | 19.7 µM | > 100 µM |  | 
Cc1nc(N)sc1C(=O)/C=C\c1ccc2c(c1)OCO2 | > 100 µM | > 100 µM |  | > 100 µM | > 100 µM | > 100 µM | > 100 µM | > 100 µM |  |  |  |  |  | > 100 µM |  |  |  |  |  | 
Cc1cccc(NC(=O)C(=O)C(C(=O)c2ccc3ccccc3c2)C2OC(=O)c3ccccc32)c1C (stereo not given) | 69.2 µM | > 100 µM |  | 33.7 µM |  | 71.8 µM | 59.1 µM | 41.9 µM |  |  |  |  |  | 24.2 µM |  |  |  |  |  | 
CCC[CH2][Sn]1([CH2]CCC)[O]CC(CN2CCCC2)[O]1 (stereo not given) | > 100 µM | 21.4 µM |  | 28.5 µM | 28.2 µM | 29.4 µM | 27.7 µM | 29.2 µM |  | 47.2 µM | 4.24 µM | 14.4 µM | 28.5 µM | 46.9 µM | 14.5 µM | 14.1 µM | 11.6 µM | 15.3 µM |  | 
COC1(OC)C2(Cl)C(Cl)=C(Cl)C1(Cl)C1C=CC=CC12 (stereo not given) | > 100 µM | > 100 µM |  | > 100 µM | > 100 µM | > 100 µM | > 100 µM | > 100 µM |  |  |  |  |  |  |  |  |  |  |  | 
Cc1cccc(NC(=O)/C(=N\NC(C)(C)C)C2NC(=S)NC2=O)c1C (stereo not given) | > 100 µM | > 100 µM |  | > 100 µM | > 100 µM | > 100 µM |  | > 100 µM |  |  |  |  |  | > 100 µM |  |  |  |  |  | 
COc1ccccc1CNCCCN1C(=O)c2ccc3c4c(ccc(c24)C1=O)C(=O)N(CCCOCCCCOCCCN)C3=O | 2.82 µM |  | 5.7 µM | 0.54 µM | 3.43 µM | 2.08 µM | 2.58 µM | 3.3 µM | 3.44 µM | 1.22 µM |  | 0.193 µM | 1.3 µM | 2.7 µM | 1.42 µM | 0.473 µM | 0.604 µM | 0.888 µM | 2.02 µM | 1.78 µM
Cn1c(=O)c(C(c2ccc([N+](=O)[O-])cc2)c2c(O)c3ccccc3n(C)c2=O)cc2ccccc21 (stereo not given) | > 100 µM | > 100 µM |  | > 100 µM | > 100 µM | > 100 µM | > 100 µM | > 100 µM |  |  |  |  |  |  |  |  |  |  |  | 
COC(=O)/C(=N\Nc1nnc(C)n1N)C(C#N)c1ccc(Cl)cc1 (stereo not given) | > 100 µM |  |  | > 100 µM | > 100 µM | > 100 µM | > 100 µM | > 100 µM |  |  |  |  |  | > 100 µM |  |  |  |  |  | 
COc1cc(C(C)O)c[n+](CCc2c[nH]c3ccccc23)c1 (stereo not given) | > 100 µM | > 100 µM |  | > 100 µM | > 100 µM | > 100 µM | > 100 µM | > 100 µM |  |  |  |  |  | > 100 µM |  |  |  |  |  | 
Cc1ccn2c(c1)nc1nc3ccccc3nc12 | > 100 µM | > 100 µM |  | > 100 µM | > 100 µM | > 100 µM | > 100 µM | > 100 µM |  |  |  |  |  |  |  |  |  |  |  | 
NCCCCN(CCCN)/[N+]([O-])=N\O | > 100 µM | > 100 µM |  | > 100 µM | > 100 µM | > 100 µM | > 100 µM | > 100 µM |  |  |  |  |  |  |  |  |  |  |  | 
NCC1Nc2ccccc2[C@@H](O)C1O (stereo not given in full) | > 100 µM | > 100 µM | > 100 µM | > 100 µM | > 100 µM | > 100 µM | > 100 µM | > 100 µM | > 100 µM |  |  |  |  |  |  |  |  |  |  | 
C[C@@]12CC=C3c4nc(Nc5cccc(O)c5)sc4CC[C@]3(C)[C@H]1CC[C@]1(C)C(=O)CC[C@@H]21 | > 100 µM | > 100 µM | > 100 µM | > 100 µM | 7.92 µM | 26 µM | 12.3 µM | 3.33 µM |  | 4.6 µM | 2.53 µM | 2.76 µM | 18 µM | 75.8 µM | 2.49 µM | 3.55 µM | 2.74 µM | 1.38 µM | 2.43 µM | 
O=C1CCN2C(=O)CCN12 | > 100 µM | > 100 µM |  | > 100 µM | > 100 µM | > 100 µM | > 100 µM |  |  |  |  |  |  | > 100 µM |  |  |  |  |  | 
O=C1C2C3C=C4c5ccccc5N(c5ccccc5)C4(C2C(=O)N1Cc1ccccc1)C1C(=O)N(Cc2ccccc2)C(=O)C31 (stereo not given) | > 100 µM | > 100 µM |  |  | > 100 µM | > 100 µM | > 100 µM | > 100 µM |  |  |  |  |  | > 100 µM |  |  |  |  |  | 
Clc1nc(Cl)c(Cl)c(-c2ccccc2)n1 | 27.9 µM |  | > 100 µM | 20.6 µM | 17.1 µM | > 100 µM | 35 µM | > 100 µM |  |  |  |  |  |  |  |  |  |  |  | 
COc1cccc2c1C(=O)c1c(O)c3c(c(O)c1C2=O)C[C@@](O)(C(C)=O)C[C@@H]3OC1OC(C)C(O)C(N)C1Br (stereo not given in full) | 0.262 µM | 1.64 µM and 1.03 µM |  | 0.83 µM and 2.71 µM | 0.419 µM and 0.194 µM | 0.207 µM and 0.646 µM | 0.206 µM and 0.177 µM | 0.78 µM | 2.67 µM |  | 0.0203 µM | 0.43 µM | 0.0657 µM | 0.532 µM and 0.228 µM | 0.0159 µM | 0.0331 µM | 0.0174 µM |  |  | 
Cc1cc(C(=O)Nc2ncc(Cc3cccc(C(F)(F)F)c3)s2)c2ccccc2n1 | > 100 µM | > 100 µM | > 100 µM | > 100 µM | > 100 µM | > 100 µM | > 100 µM | > 100 µM | > 100 µM | 3.19 µM | 0.0458 µM | 4.02 µM |  |  | 1.63 µM | 3.49 µM | 3.9 µM | 0.084 µM | 2.41 µM | 3.47 µM
